Assay results as given in PubChem BioAssay AID2765 (Broad Institute, 2010).
Active and inactive are the calls of the source.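 The calls were made as follows: active = half-maximal concentration for the rise in caspase light signal at or below ten times the top tested dose; inconclusive = flat fit between 30% and 70% activity, or unreliable curve fit; inactive = the rest.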

Tested on: MEF A1-2A-BIM cells, caspase 3/7 luminescence, 3 h
Test: caspase activation in A1-2A-BIM MEF cells, dose response, A1 inhibitor project, cell-based, luminescence, retest (AID 2765)

SMILES: O=[N+]([O-])/C=C/c1cn(Cc2ccc(Cl)cc2)c2ccccc12
- EC50: 21.6 µM

SMILES: C=C1/C=C(\C)[C@](C)(O)C[C@H](O)CC(=O)[C@H](O)[C@@H](O)[C@H](C)C[C@H](C)OC(=O)/C(C)=C/CC/C=C/[C@@H]2O[C@H]2C[C@H](C)C1
- EC50: > 35 µM (inactive)

SMILES: Nc1nc(CSc2nc3ccccc3[nH]2)nc(N2CCOCC2)n1
- EC50: > 35 µM (inactive)

SMILES: O=C1CC(C(=O)Nc2ccccc2)C2(CCCCC2)O1 (centres undefined)
- EC50: > 35 µM (inactive)

SMILES: COc1cc2c(c(OC)c1OC)-c1ccc(O)c(=O)cc1C(NC(C)=O)CC2 (centres undefined)
- EC50: > 35 µM (inactive)

SMILES: Cc1cccc(-n2c(Cc3ccccc3)n[nH]c2=S)c1
- EC50: > 35 µM (inactive)

SMILES: COc1ccc(C(=O)N/C(=C/c2cccs2)C(=O)NN)cc1OC
- EC50: > 35 µM (inactive)

SMILES: O=C(O)c1cc(-c2ccc(Cl)cc2)n(-c2cccc(Cl)c2)n1
- EC50: > 35 µM (inactive)

SMILES: CC(=O)c1ccc(N2CCN(S(=O)(=O)c3c(C(=O)N4CCCC4)c(C)n(C)c3C)CC2)cc1
- EC50: > 35 µM (inactive)

SMILES: Cc1cccc(C)c1NC(=O)c1cnccn1
- EC50: > 35 µM (inactive)

SMILES: CC(NC(=O)c1cc(F)c(F)c(F)c1F)c1ccc(-n2ccnc2)cc1 (centres undefined)
- EC50: > 35 µM (inactive)

SMILES: CCOC(=O)CC1=C(C(=O)OCC)C2(C(=O)Nc3ccccc32)C(C#N)=C(N)O1 (centres undefined)
- EC50: > 35 µM (inactive)

SMILES: CCc1noc(C)c1C(=O)N(CC)CC(=O)NCc1ccc(Cl)cc1
- EC50: > 35 µM (inactive)

SMILES: CCc1ccc(C2C3=C(CC(C)(C)CC3=O)Nc3c2c(=O)[nH]c2nc(C)nn32)cc1 (centres undefined)
- EC50: > 35 µM (inactive)

SMILES: O=C(/C=C/c1ccc(Cl)cc1)c1ccc([N+](=O)[O-])o1
- EC50: > 35 µM (inactive)

SMILES: CC(C)CC(NC(=O)c1ccc(Cl)cc1)C(=O)OCC(=O)c1ccc2c(c1)NC(=O)CO2 (centres undefined)
- EC50: 5.35 µM

SMILES: CC(O)[C@H](NC(=O)C1(c2ccccc2)CCN(C(=O)OC(C)(C)C)CC1)C(=O)O (some centres undefined)
- EC50: > 35 µM (inactive)

SMILES: Cc1cccc(NC(=O)CCC(=O)N/N=C/c2ccco2)c1C
- EC50: > 35 µM (inactive)

SMILES: Cc1[nH]n(-c2cccc(Cl)c2)c(=O)c1C=NC12CN3CN(CN(C3)C1)C2
- EC50: > 35 µM (inactive)

SMILES: Cc1ccc(NC(=O)Cn2ncc(Cl)c(Cl)c2=O)cc1S(=O)(=O)N1CCCCC1
- EC50: > 35 µM (inactive)

SMILES: O=C(CNC(=O)c1ccc(Br)cc1)NC1CC1
- EC50: > 35 µM (inactive)

SMILES: COc1cccc(-n2nnnc2S(C)(=O)=O)c1
- EC50: > 35 µM (inactive)

SMILES: CCOC(=O)CSC1=N/C(=C/c2ccc(-n3cncn3)cc2)C(=O)N1C(C)=O
- EC50: 25.6 µM

SMILES: O=C(Nc1nc2c(Br)cc(Br)cc2c(=O)s1)c1ccco1
- EC50: > 35 µM (inactive)

SMILES: CN(C)CCN(C(=O)/C=C/c1cccs1)c1nc2c(F)cc(F)cc2s1
- EC50: 36.1 µM

SMILES: O=C(OCn1ncc(Cl)c(Cl)c1=O)c1cccc(C(F)(F)F)c1
- EC50: > 35 µM (inactive)

SMILES: CCCn1cc(S(=O)(=O)c2ccc(C)cc2)c(=O)c2cc(OC)c(OC)cc21
- EC50: > 35 µM (inactive)

SMILES: O=C(COc1ccc(/C=N/NC(=O)c2cc3ccccc3o2)cc1Br)Nc1ccccc1
- EC50: 31.2 µM

SMILES: CCc1ccc(NC(=O)c2nc(S(=O)(=O)Cc3ccccc3)ncc2Cl)cc1
- EC50: > 35 µM (inactive)

SMILES: Cc1cc(N2CCN(c3ccccc3)CC2)nc(-c2ccccc2)n1
- EC50: > 35 µM (inactive)

SMILES: Cc1sc(NC(=O)CSC2=NCCS2)nc1-c1ccccc1
- EC50: > 35 µM (inactive)

SMILES: CCCCNC(=S)N/N=C/c1ccc(OCC(=O)Nc2c(C)cc(C)cc2C)c(OC)c1
- EC50: > 35 µM (inactive)

SMILES: O=C1C(=O)c2ccc(-c3ccccc3)cc2-c2ccccc21
- EC50: > 35 µM (inactive)

SMILES: CCOC(=O)c1cc(CC)sc1NC(=O)C1CC(=O)NN1Cc1ccccc1 (centres undefined)
- EC50: > 35 µM (inactive)

SMILES: CS(=O)(=O)c1ncc(Cl)c(C(=O)Nc2ccc(OC(F)F)cc2)n1
- EC50: > 35 µM (inactive)

SMILES: Cn1c(O)c(C=NCCN2CCN(C(=O)Nc3ccccc3)CC2)c(=O)n(C)c1=O
- EC50: > 35 µM (inactive)

SMILES: Cc1occc1-c1nnc(SCC(=O)NCCc2ccccc2)n1Cc1ccccc1
- EC50: > 35 µM (inactive)

SMILES: Cc1ccc(C(C(=O)NCc2ccco2)N(C(=O)Cc2cccs2)c2cccnc2)cc1 (centres undefined)
- EC50: > 35 µM (inactive)

SMILES: Cn1cccc1C(=O)NC(=O)COC(=O)c1ccc(S(C)(=O)=O)cc1
- EC50: > 35 µM (inactive)

SMILES: COc1cc(CN2CCCC(C(=O)Nc3ccccc3Oc3cccnc3)C2)ccc1F (centres undefined)
- EC50: > 35 µM (inactive)

SMILES: C=CC[C@@H](CC(=O)N[C@@H](CO)Cc1ccccc1)C(=O)N[C@H](COC(=O)[C@H](CC=C)CC(=O)OC(C)(C)C)Cc1ccccc1
- EC50: > 35 µM (inactive)

SMILES: O=C(NCCOC(=O)c1ccc(Cl)c(S(=O)(=O)N2CCCCC2)c1)c1ccncc1
- EC50: > 35 µM (inactive)

SMILES: O=C(NC[C@H]1CCCO1)c1cccc2c1C(=O)c1ccc(-c3ccc(F)cc3OCc3ccccc3)cc1S2(=O)=O
- EC50: > 35 µM (inactive)

SMILES: CCc1nc(N=Nc2c(O)[nH]c3ccccc23)c2c3c(sc2n1)CCC3
- EC50: 20.8 µM

SMILES: O=C(N/N=C/c1ccccc1O)C1CC(=O)N(c2ccc(F)cc2)C1 (centres undefined)
- EC50: > 35 µM (inactive)

SMILES: Cc1nn(Cc2c(Cl)cccc2Cl)c(C)c1NC(=O)c1cn(-c2ccccc2)nc1-c1ccccc1
- EC50: 15.1 µM

SMILES: O=S1(=O)CCOC[C@H](CC2CCCCC2)N1Cc1cccc(Cl)c1
- EC50: > 35 µM (inactive)

SMILES: C=C1C(=O)O[C@H]2C[C@@H](C)[C@@H]3C=CC(=O)[C@@]3(C)C[C@H]12
- EC50: > 35 µM (inactive)

SMILES: CCc1cc(C(=O)OCC(=O)N2CCC(c3ccccc3)=N2)sc1C
- EC50: > 35 µM (inactive)

SMILES: O=C(NCc1cccnc1)[C@@H]1CC=C[C@@H]2CCN(Cc3ccccc3)C(=O)[C@@H]21
- EC50: > 35 µM (inactive)

SMILES: Cc1ccc(C=C2C(Cl)=C(Cl)C(Cl)=C2Cl)cc1
- EC50: 7.19 µM

SMILES: O=C(Nc1ccccc1N1CCCCC1)c1ccc(Cl)cc1
- EC50: > 35 µM (inactive)

SMILES: CCn1nnc(NC(=O)Cc2ccc(Cl)cc2)n1
- EC50: > 35 µM (inactive)

SMILES: O=C(Nc1ccc([N+](=O)[O-])cc1)C(Cc1ccccc1)N1C(=O)c2cccc3cccc(c23)C1=O (centres undefined)
- EC50: > 35 µM (inactive)

SMILES: Cc1cc(N2C(=O)C(O)=C(C(=O)c3cc4ccccc4o3)C2c2ccc(Br)cc2)no1 (centres undefined)
- EC50: > 35 µM (inactive)

SMILES: Cc1c(C(=O)NCCN2C(=O)S/C(=C\c3cccs3)C2=O)cccc1[N+](=O)[O-]
- EC50: > 35 µM (inactive)

SMILES: Cc1cc(Sc2ncnc(N)c2[N+](=O)[O-])ncn1
- EC50: > 35 µM (inactive)

SMILES: Cc1cc(C)n(-c2ccc(NC(=O)C3CCN(Cc4ccc(C)o4)CC3)cc2)n1
- EC50: > 35 µM (inactive)

SMILES: Cc1cccc(C)c1NC(=S)Nc1ccccc1C(=O)NCc1ccco1
- EC50: > 35 µM (inactive)

SMILES: O=C(NC1CCCc2ccccc21)c1ccccc1OC(F)F (centres undefined)
- EC50: > 35 µM (inactive)

SMILES: CC1CCCN(C(=O)CN2C(=O)C(C)Oc3ccccc32)C1 (centres undefined)
- EC50: > 35 µM (inactive)

SMILES: COc1ccccc1N1CCN(S(=O)(=O)CCNC(=O)c2cc(OC)c(OC)c(OC)c2)CC1
- EC50: > 35 µM (inactive)

SMILES: Cn1nc(-c2ccc(OCC(=O)NCC3CCCO3)cc2)c2ccccc2c1=O (centres undefined)
- EC50: > 35 µM (inactive)

SMILES: COc1ccc(-c2nc(CN3CCN(C(=O)c4ccco4)CC3)c(C)o2)cc1OC
- EC50: > 35 µM (inactive)

SMILES: CCN(CC)C(=O)Oc1ccc(Br)c2ccccc12
- EC50: > 35 µM (inactive)

SMILES: CC(CC(=O)N1CCN(c2cccc(Cl)c2)CC1)S(=O)(=O)c1ccc2c(c1)NC(=O)CO2 (centres undefined)
- EC50: > 35 µM (inactive)

SMILES: CCOc1ccc(-c2ccc(NS(=O)(=O)c3ccc([N+](=O)[O-])cc3)cc2)nn1
- EC50: > 35 µM (inactive)

SMILES: COc1cc2sc3ccc(C#Cc4ccc(N)cc4)cc3c(=O)c2cc1OC
- EC50: > 35 µM (inactive)

SMILES: COc1ccccc1N1CCN(C(=O)c2ccc(C(C)(C)C)cc2)CC1
- EC50: > 35 µM (inactive)

SMILES: CC(C)(C)C1CCc2onc(C(=O)Nc3cccc(O)c3)c2C1 (centres undefined)
- EC50: > 35 µM (inactive)

SMILES: O=C(O)CN1C(=O)C2C3CC(C2C1=O)C1C(c2ccccc2)c2sc(=O)[nH]c2SC31 (centres undefined)
- EC50: > 35 µM (inactive)

SMILES: COc1cc(NC(=O)c2cccs2)ccc1NC(=O)c1cc2ccccc2o1
- EC50: > 35 µM (inactive)

SMILES: O=C(CN(C(=O)CCC(=O)Nc1nccs1)c1cccc(F)c1)NCc1ccccc1
- EC50: > 35 µM (inactive)

SMILES: CC(=O)n1nc2nc(C)cc(C)c2c1N
- EC50: > 35 µM (inactive)

SMILES: COc1c(Br)cc([N+](=O)[O-])c(OC)c1C(=O)NC(=O)Nc1nc(C)cc(C)n1
- EC50: > 35 µM (inactive)

SMILES: CCS(=O)(=O)c1ncc(Cl)c(C(=O)Nc2ccccc2OC)n1
- EC50: > 35 µM (inactive)

SMILES: COc1ccccc1C(=O)NCCC(=O)N1CCN(S(=O)(=O)c2ccc(Cl)cc2)CC1
- EC50: > 35 µM (inactive)

SMILES: COc1ccc2c(c1)c(=O)c(C(=O)c1ccc(F)cc1)cn2CC(=O)Nc1ccc(F)cc1
- EC50: > 35 µM (inactive)

SMILES: CC(C)[C@H]1CN=C2N(CCNC(=O)CCC3CCCCC3)[C@H](Cc3ccc(O)cc3)CN21
- EC50: > 35 µM (inactive)

SMILES: C=CC[N+]1(CC=C)CCOCC1
- EC50: > 35 µM (inactive)

SMILES: CC1CCN(c2ccc3nnc(CCC(=O)NCc4ccco4)n3n2)CC1
- EC50: > 35 µM (inactive)

SMILES: CCCCCC(=O)N1CCCC1
- EC50: > 35 µM (inactive)

SMILES: CC(C)C[C@H](NC(=O)N1CCn2c1nc1ccccc12)C(=O)NCc1ccccc1
- EC50: > 35 µM (inactive)

SMILES: CCOc1ccc(Nc2cc(C)nc3nc(C)nn23)cc1
- EC50: > 35 µM (inactive)

SMILES: COc1ccccc1C(=O)N1CCN(Cc2ccc3c(c2)OCO3)CC1
- EC50: > 35 µM (inactive)

SMILES: CS(=O)(=O)c1nc(-c2ccco2)cc(C(F)(F)F)n1
- EC50: > 35 µM (inactive)

SMILES: COc1ccc(C(=O)Sc2ccc(Cl)cc2)cc1OC
- EC50: > 35 µM (inactive)

SMILES: CC(C)CNC(=S)N(Cc1ccco1)Cc1cc2cc3c(cc2[nH]c1=O)OCCO3
- EC50: > 35 µM (inactive)

SMILES: Cc1cc(Nc2ccc(Cl)cc2)n2ncnc2n1
- EC50: > 35 µM (inactive)

SMILES: CCCc1cc(=O)oc2cc(C)cc(OCC(=O)Nc3ccc(S(N)(=O)=O)cc3)c12
- EC50: > 35 µM (inactive)

SMILES: CCN(CC)S(=O)(=O)c1cc(C(=O)Nc2ccccc2[N+](=O)[O-])ccc1Cl
- EC50: > 35 µM (inactive)

SMILES: Cc1ccc(CS(=O)(=O)c2ncc(Cl)c(C(=O)Nc3ccc(OC(F)F)cc3)n2)cc1
- EC50: > 35 µM (inactive)

SMILES: CN(C)c1ccc(NC(=O)C2CCCN(S(=O)(=O)c3ccccc3)C2)cc1 (centres undefined)
- EC50: > 35 µM (inactive)

SMILES: COc1cc(C(=O)NCc2cc(C)nc3ccccc23)cc(OC)c1OC
- EC50: > 35 µM (inactive)
